The values that follow come from patent US7371737B2, “2-substituted-6-trifluoromethyl purine derivatives with adenosine-A3 antagonistic activity” (Solvay Pharmaceuticals, B.V., priority 2004, dated 2008).

Assay [1] addresses T1, human Adenosine A3 receptor (Homo sapiens, UniProt P0DMS8).
T1 sequence (P0DMS8 1-318): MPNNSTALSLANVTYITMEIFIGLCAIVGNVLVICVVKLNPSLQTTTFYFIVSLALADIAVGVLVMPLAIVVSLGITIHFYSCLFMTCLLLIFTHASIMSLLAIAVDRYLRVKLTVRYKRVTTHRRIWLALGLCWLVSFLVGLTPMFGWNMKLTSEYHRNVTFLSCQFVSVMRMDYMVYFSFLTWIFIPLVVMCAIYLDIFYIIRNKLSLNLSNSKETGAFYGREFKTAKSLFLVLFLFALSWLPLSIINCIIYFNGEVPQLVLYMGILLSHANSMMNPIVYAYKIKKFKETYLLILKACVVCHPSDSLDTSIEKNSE
The assay can be described thus: In vitro affinity for human adenosine-A3 receptors (radioligand [125I]-AB-MECA). Format: binding. The following applies: membranes of HEK 293 cells stably expressing human A3, [125I]-AB-MECA, 22° C., 90 minutes; for Ki: read-out: Adenosine receptor affinity (binding) A3 pKi (converted). The arrangement: expressed in transfected cells; host or cells: HEK 293 cells (membrane preparations). As for the experimental part: Affinity of the compounds for human adenosine-A3 receptors was determined using the receptor binding assay described by C. A. Salvatore et al.: “Molecular cloning and characterization of the human A3 adenosine receptor”, Proc. Natl. Acad. Sci. USA, 90, 10365-10369, 1993. Briefly, membrane preparations were obtained from human recombinant (HEK 293) cells in which the human adenosine-A3 receptor was stably expressed. […] Separation of bound radioactivity from free was done by filtration through Packard GF/B glass fiber filters with several washings with ice-cold buffer using a Packard cell harvester. Bound radioactivity was measured with a scintillation counter (Topcount, Packard) using a liquid scintillation cocktail (Microscint 0, Packard). […] Determination of In Vitro Functional Activity on Human Adenosine A3 Receptors Using an Aequorin-based Assay

Assay [2] deals with T2, human adenosine-A2A receptors (Homo sapiens, UniProt P29274).
T2 construct: expressed in transfected cells; host or cells: HEK-293 cells
T2 sequence (P29274 whole entry): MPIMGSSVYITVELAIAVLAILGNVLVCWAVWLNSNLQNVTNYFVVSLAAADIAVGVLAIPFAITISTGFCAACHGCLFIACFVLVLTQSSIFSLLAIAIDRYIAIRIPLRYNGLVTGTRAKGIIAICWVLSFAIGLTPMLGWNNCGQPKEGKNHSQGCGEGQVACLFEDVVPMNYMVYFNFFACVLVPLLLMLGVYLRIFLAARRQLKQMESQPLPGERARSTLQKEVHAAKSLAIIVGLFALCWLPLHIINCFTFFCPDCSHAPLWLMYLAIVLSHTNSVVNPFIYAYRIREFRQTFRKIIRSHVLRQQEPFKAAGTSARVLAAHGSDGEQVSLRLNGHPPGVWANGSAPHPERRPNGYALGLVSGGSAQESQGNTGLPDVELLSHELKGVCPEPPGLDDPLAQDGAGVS
The assay can be described thus: In vitro affinity for human adenosine-A2A receptors (radioligand [3H]CGS 21680). The following applies: human recombinant receptors expressed in HEK-293 cells; for Ki: read-out: Adenosine receptor affinity (binding) A2A pKi (converted). The format is binding. As for the experimental part:
Affinity of the compounds for human adenosine-A2A receptors was determined using the receptor binding assay described by D. R. Luthin et al., (Mol. Pharmacol., 47, 307, 1995), using human recombinant receptors expressed in HEK-293 cells, and [^3H]CGS 21680 as radioligand.

Assay [3] addresses T3, human adenosine-A1 receptors (Homo sapiens, UniProt P30542).
T3 construct: expressed in transfected cells; host or cells: CHO cells
T3 sequence (P30542 1-326): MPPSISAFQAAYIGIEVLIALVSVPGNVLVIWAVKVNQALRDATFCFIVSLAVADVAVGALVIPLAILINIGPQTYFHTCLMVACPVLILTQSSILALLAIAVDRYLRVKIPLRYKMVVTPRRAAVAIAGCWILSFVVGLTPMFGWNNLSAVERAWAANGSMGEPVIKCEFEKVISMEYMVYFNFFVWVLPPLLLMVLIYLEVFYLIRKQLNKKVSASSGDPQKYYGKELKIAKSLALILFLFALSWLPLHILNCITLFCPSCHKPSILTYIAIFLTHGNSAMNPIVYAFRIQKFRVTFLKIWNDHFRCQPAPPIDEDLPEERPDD
The assay can be described thus: In vitro affinity for human adenosine-A1 receptors (radioligand [3H]DPCPX). Format: binding. Particulars: human recombinant receptors expressed in CHO cells; for Ki: read-out: Adenosine receptor affinity (binding) A1 pKi (converted). The method, then:
Affinity of the compounds for human adenosine-A1 receptors was determined using the receptor binding assay described by A. Townsend-Nicholson and P. R. Schofield (Biol. Chem., 269, 2373, 1994), using human recombinant receptors expressed in CHO cells, and [^3H]DPCPX as radioligand.

In assay [4] the target is T1, human Adenosine A3 receptor. The assay can be described thus: In vitro functional activity on human adenosine A3 receptors using an Aequorin-based assay. The format is cell-based. Further details: A. et al. (Acc. Number GenBank: L22607); host or cells: CHO-K1 cells stably expressing mitochondrially targeted aequorin and Galpha16. The following applies: hA3-Aequorin CHO-K1 cells; for EC50: agonist mode, concentrations up to 10^−5 M, read-out: Functional activity A3 agonism pEC50 (converted); for Kb: antagonist mode, N6-benzyl-NECA as the agonist, read-out: Functional activity A3 antagonism pA2 (converted). The text has this: A stable monoclonal hA3-Aequorin cell line was provided by Euroscreen. The coding region encoding the human Adenosine A3 receptor was amplified by polymerase chain reaction (PCR), using human lung cDNA as template. The PCR product was ligated in the expression vector pEFIN3 (Invitrogen), and the complete sequence of the insert was then established. […] A. et al. (Acc. Number GenBank: L22607). The expression plasmid containing the coding sequence of the human Adenosine A3 receptor was transfected in CHO-K1 cells stably expressing mitochondrially targetted Aequorin and Gα16. Resistant clones were selected in the presence of 400 μg/ml G418 and isolated by limiting dilution. […] The hA3-Aequorin cells express mitochondrially targetted apo-Aequorin. Cells have to be loaded with coelenterazine, in order to reconstitute active Aequorin. After binding of agonists to the hA3 receptor, the intracellular calcium concentration increases, which leads to a luminescent response. Binding of calcium to the apo-Aequorin/coelenterazine complex leads to an oxidation reaction of coelenterazine, which results in the production of apo-Aequorin, coelenteramide, CO2 and light (λmax 469 nm). This luminescent response is dependent on the agonist concentration.
Assay-protocol: • Dilute the loaded cells 18× in Dulbecco's medium without PhenolRed (Gibco BRL), pre-heated to 37° C., resulting in a concentration of 2.8*10^5 cells/ml. • Stir for 1 hour at room temperature. • Add 10 μl compound or control per well in white 96-well plates. • Add 90 μl of diluted cells (2.5*10^4 cells/well). • Measure chemoluminescence immediately for 20 seconds. • In antagonist mode 50 μl 10^−6 N6-benzyl-NECA is added as the agonist. • Measure chemoluminescence immediately for 20 seconds using the MicroBetaJet (PerkinElmer).

Take `Cn1cnc2c(C(F)(F)F)nc([N+](=O)[O-])nc21` [Compound 1, 2-nitro-6-trifluoromethyl-9-methyl purine]: the values for the Ki in assay [1], in assay [2] and in assay [3] were 3.98 µM, greater than 10 µM and greater than 10 µM, respectively.

Take `OC[C@H]1O[C@@H](n2cnc3c(C(F)(F)F)nc(N4CCCCC4)nc32)[C@H](O)[C@@H]1O` [Compound 3, 2-piperidinyl-6-trifluoromethyl-9-β-D-ribofuranosyl purine]: the “Adenosine receptor affinity (binding) A3 pKi” value in assay [1] was found to be 5.4. Also, the “Adenosine receptor affinity (binding) A2A pKi” value in assay [2] is reported as less than 5.0. The “Adenosine receptor affinity (binding) A1 pKi” value in assay [3] is on record as less than 5.0.

In the case of `OC[C@H]1O[C@@H](n2cnc3c(C(F)(F)F)nc(N4CCC(O)CC4)nc32)[C@H](O)[C@@H]1O` [Compound 4, 2-(4-OH-piperidinyl)-6-trifluoromethyl-9-β-D-ribofuranosyl purine], the figures for the Ki in assay [1], in assay [2] and in assay [3] were 15.8 µM, greater than 10 µM and greater than 10 µM, respectively. Also, the EC50 in assay [4] is greater than 10 µM. In addition, the Kb in assay [4] was 0.2 µM.

`Cn1c(I)nc2c(C(F)(F)F)nc(NCCc3ccccc3)nc21` [Compound 12, 8-iodo-6-trifluoromethyl-9-methyl-2-phenethylamino purine]: the Ki in assay [1] was 2.51 µM; in assay [2], greater than 10 µM; in assay [3], greater than 10 µM. Moreover, the EC50 in assay [4] is greater than 10 µM. For the same compound, the Kb in assay [4] is 2 µM.

Turning to `Cn1c(-c2ccco2)nc2c(C(F)(F)F)nc(NCCc3ccccc3)nc21` [Compound 13, 8-(furan-2-yl)-6-trifluoromethyl-9-methyl-2-phenethylamino purine], the Ki is 1.26 µM in assay [1], 7.94 µM in assay [2] and greater than 10 µM in assay [3]. Also, the EC50 in assay [4] was greater than 10 µM. In addition, the Kb in assay [4] is 0.158 µM.

For the compound `Cn1c(N2CCCC2)nc2c(C(F)(F)F)nc(NCCc3ccccc3)nc21` [Compound 15, 8-N-pyrrolidinyl-6-trifluoromethyl-9-methyl-2-phenethylamino purine], the Ki in assay [1] is 3.16 µM; in assay [2] it was greater than 10 µM; in assay [3], greater than 10 µM.

With `Cn1c(N2CCCCC2)nc2c(C(F)(F)F)nc(NCCc3ccccc3)nc21` [Compound 16, 8-N-piperidinyl-6-trifluoromethyl-9-methyl-2-phenethyl amino purine], the Ki in assay [1] is 3.98 µM; in assay [2] it was 15.8 µM; in assay [3], greater than 10 µM.

Consider `Cn1c(N2CCOCC2)nc2c(C(F)(F)F)nc(NCCc3ccccc3)nc21` [Compound 17, 8-N-morpholinyl-6-trifluoromethyl-9-methyl-2-phenethylamino purine], for which the Ki in assay [1] was 1.58 µM; in assay [2], greater than 10 µM; in assay [3] it was greater than 10 µM.

In the case of `Cn1c(NC2CCCC2)nc2c(C(F)(F)F)nc(NCCc3ccccc3)nc21` [Compound 18, 8-cyclopentylamino-6-trifluoromethyl-9-methyl-2-phenethylamino purine], the values for the Ki in assay [1], in assay [2] and in assay [3] were 0.631 µM, 1.26 µM and 3.16 µM, respectively.

Regarding `Cn1c(-c2ccccc2)nc2c(C(F)(F)F)nc(NCCc3ccccc3)nc21` [Compound 19, 8-phenyl-6-trifluoromethyl-9-methyl-2-phenethylamino purine], the Ki was 2 µM in assay [1], 7.94 µM in assay [2] and greater than 10 µM in assay [3].

On to `Cn1c(-c2cccc(F)c2)nc2c(C(F)(F)F)nc(NCCc3ccccc3)nc21` [Compound 20, 8-(3-fluorophenyl)-6-trifluoromethyl-9-methyl-2-phenethylamino purine], for which the figures for the Ki in assay [1], in assay [2] and in assay [3] were 1 µM, greater than 10 µM and 7.94 µM, respectively.

Regarding `Cn1c(/C=C/c2ccccc2)nc2c(C(F)(F)F)nc(NCCc3ccccc3)nc21` [Compound 21, 8-E-styryl-6-trifluoromethyl-9-methyl-2-phenethylamino purine], the Ki in assay [1] was 3.98 µM; in assay [2], greater than 10 µM; in assay [3], greater than 10 µM.

In the case of `Cn1c(C#Cc2ccccc2)nc2c(C(F)(F)F)nc(NCCc3ccccc3)nc21` [Compound 23, 8-phenylacetylene-6-trifluoromethyl-9-methyl-2-phenethylamino purine], the Ki is 0.501 µM in assay [1], greater than 10 µM in assay [2] and greater than 10 µM in assay [3].

`Cn1c(/C=C/c2ccc(C(F)(F)F)cc2)nc2c(C(F)(F)F)nc(NCCc3ccccc3)nc21` [Compound 24, 8-E-(4-trifluoromethylstyryl)-6-trifluoromethyl-9-methyl-2-phenethylamino purine]: the Ki in assay [1] is 3.98 µM; in assay [2], greater than 10 µM; in assay [3] it was greater than 10 µM.

As for `Cn1c(/C=C\c2ccc(C(F)(F)F)cc2)nc2c(C(F)(F)F)nc(NCCc3ccccc3)nc21` [Compound 25, 8-Z-(4-trifluoromethylstyryl)-6-trifluoromethyl-9-methyl-2-phenethylamino purine], the Ki is 5.01 µM in assay [1], greater than 10 µM in assay [2] and greater than 10 µM in assay [3].

Turning to `OC[C@H]1O[C@@H](n2cnc3c(C(F)(F)F)nc(NCCc4ccc(O)cc4)nc32)[C@H](O)[C@@H]1O` [Compound 27, 2-(4-hydroxy-phenethylamino)-6-trifluoromethyl-9-β-D-ribo-furanosyl purine], the values for the Ki in assay [1], in assay [2] and in assay [3] were 0.01 µM, 3.16 µM and 5.01 µM, respectively.

Take `CC(C)(C)OC(=O)OCn1cnc2c(C(F)(F)F)nc(NCCc3ccccc3)nc21` [Compound 28, 6-trifluoromethyl-2-phenetylamino-9-BocOM-purine]: the figures for the Ki in assay [1], in assay [2] and in assay [3] were 0.0251 µM, greater than 10 µM and 2.51 µM, respectively.

Regarding `OC[C@H]1O[C@@H](n2cnc3c(C(F)(F)F)nc(OCCc4ccccc4)nc32)[C@H](O)[C@@H]1O` [Compound 30, 2-phenethyloxy-6-trifluoromethyl-9-β-D-ribofuranosyl purine], the results for the Ki in assay [1], in assay [2] and in assay [3] were 0.158 µM, 3.16 µM and 1.58 µM, respectively.
